The results in this text go back to patent US20190357555A1, “BLUEBERRY FRESH-KEEPING AGENT, PREPARATION METHOD AND APPLICATIONS THEREOF” (ZHEJIANG ACADEMY OF AGRICULTURAL SCIENCES, priority 2018, published 2019).

Molecules are shown by their SMILES.

This assay has as its system Botrytis cinerea. Briefly: Filter-paper inhibition zone test against Botrytis cinerea. The format is cell-based. As to conditions: PDA, 28° C., 6 days; for inhibition zone diameter: filter paper 1 cm soaked 4 hours; for inhibitory effect on Botrytis cinerea (in words): filter paper test. Here is the method: Test species and reagents: Botrytis cinerea was isolated from the picked blueberries in the laboratory, and chitosan and ascorbic acid were purchased commercially.
Medium and culture conditions: a PDA medium was used, and cultured at 28° C. for 6 days.
Antibacterial effect test: after Botrytis cinerea was activated with the PDA medium, lawn of Botrytis cinerea was picked up and suspended with sterile water to obtain a bacterial suspension. Scraps of filter paper with a diameter of 1 cm were made from a highly absorbent filter paper by using a puncher, and the scraps of filter paper were subjected to dry heat sterilization and soaked in the Galla chinensis extract, a chitosan solution, and an ascorbic acid solution, respectively, and dried for use after 4 hours soaking. The solid PDA medium was melted, poured into a culture dish, cooled and solidified, then 0.1 mL of the bacterial suspension was added and uniformly coated, and then the scraps of filter paper soaked with the above solutions were attached to the bacteria-containing culture dish, and a scrap of filter paper impregnated with sterile water was used as a control. The culture dish treated above was cultured at 28° C. for 6 days, and the diameters of inhibition zones were measured.

As to `O=C(O)c1cc(O)c(O)c(O)c1` [gallic acid], the inhibition zone diameter was 0.00 mm and the “inhibitory effect on Botrytis cinerea (in words)” value was “no inhibitory effect”.

With `O=C1O[C@H]([C@@H](O)CO)C(O)=C1O` [ascorbic acid], the inhibition zone diameter was 0.00 mm and the “inhibitory effect on Botrytis cinerea (in words)” value is “no inhibitory effect”.
